From patent publication US7563787B2, “Substituted pyrazole compounds” (Miikana Therapeutics, Inc., priority 2005, dated 2009)

Assays:
Assay type in all cases: biochemical
ABL1 = target: T1, ABL1 (Homo sapiens, UniProt P00519); experiment: Kinase Selectivity Assay; details: read-out: Percent Inhibition at 1 μM; further: ATP at apparent Km or 100 µM
T1 construct: purchased Invitrogen, Carlsbad, Calif
Description: (§1) Compounds were assayed for inhibitory activity against a panel of different kinase enzymes at a concentration of 1 μM. Where appropriate, full-length enzymes or catalytically active fragments, with N-terminal or C-terminal His- or GST-tags, were used (Invitrogen, Carlsbad, Calif.). Test compounds were initially diluted to 100× test concentration in 100% DMSO. This 100× concentration was then diluted to a 4× working concentration in Kinase Buffer (50 mM HEPES pH 7.5, 0.01% Brij-35, 10 mM MgCl2, 1 mM EGTA) and 2.5 μL was then added to a low volume NBS, 384-well plate (Corning, Corning, N.Y.). Five μL of a 2× peptide/kinase mixture (Invitrogen, Carlsbad, Calif.), as appropriate (listed in Table 3), was then added and the reaction was then initiated by addition of 2.5 μL of a 4× working concentration of ATP in Kinase Buffer.

ABL1 E255K = target: T2, ABL1 E255K (Homo sapiens, UniProt P00519, E255K); experiment: Kinase Selectivity Assay; details: read-out: Percent Inhibition at 1 μM
T2 construct: purchased Invitrogen, Carlsbad, Calif
Description: as §1

ABL1 G250E = target: T3, ABL1 G250E (Homo sapiens, UniProt P00519, G250E); experiment: Kinase Selectivity Assay; details: read-out: Percent Inhibition at 1 μM; further: ATP at apparent Km or 100 µM
T3 construct: purchased Invitrogen, Carlsbad, Calif
Description: as §1

ABL1 T315I = target: T4, ABL1 T315I (Homo sapiens, UniProt P00519, T315I); experiment: Kinase Selectivity Assay; details: read-out: Percent Inhibition at 1 μM; further: ATP at apparent Km or 100 µM
T4 construct: purchased Invitrogen, Carlsbad, Calif
Description: as §1

ABL1 Y253F = target: T5, ABL1 Y253F (Homo sapiens, UniProt P00519, Y253F); experiment: Kinase Selectivity Assay; details: read-out: Percent Inhibition at 1 μM; further: ATP at apparent Km or 100 µM
T5 construct: purchased Invitrogen, Carlsbad, Calif
Description: as §1

FGFR1 = target: T6, FGFR1 (Homo sapiens, UniProt P11362); experiment: Kinase Selectivity Assay; details: read-out: Percent Inhibition at 1 μM; further: ATP at apparent Km or 100 µM
T6 construct: purchased Invitrogen, Carlsbad, Calif
T6 sequence (P11362 22-822): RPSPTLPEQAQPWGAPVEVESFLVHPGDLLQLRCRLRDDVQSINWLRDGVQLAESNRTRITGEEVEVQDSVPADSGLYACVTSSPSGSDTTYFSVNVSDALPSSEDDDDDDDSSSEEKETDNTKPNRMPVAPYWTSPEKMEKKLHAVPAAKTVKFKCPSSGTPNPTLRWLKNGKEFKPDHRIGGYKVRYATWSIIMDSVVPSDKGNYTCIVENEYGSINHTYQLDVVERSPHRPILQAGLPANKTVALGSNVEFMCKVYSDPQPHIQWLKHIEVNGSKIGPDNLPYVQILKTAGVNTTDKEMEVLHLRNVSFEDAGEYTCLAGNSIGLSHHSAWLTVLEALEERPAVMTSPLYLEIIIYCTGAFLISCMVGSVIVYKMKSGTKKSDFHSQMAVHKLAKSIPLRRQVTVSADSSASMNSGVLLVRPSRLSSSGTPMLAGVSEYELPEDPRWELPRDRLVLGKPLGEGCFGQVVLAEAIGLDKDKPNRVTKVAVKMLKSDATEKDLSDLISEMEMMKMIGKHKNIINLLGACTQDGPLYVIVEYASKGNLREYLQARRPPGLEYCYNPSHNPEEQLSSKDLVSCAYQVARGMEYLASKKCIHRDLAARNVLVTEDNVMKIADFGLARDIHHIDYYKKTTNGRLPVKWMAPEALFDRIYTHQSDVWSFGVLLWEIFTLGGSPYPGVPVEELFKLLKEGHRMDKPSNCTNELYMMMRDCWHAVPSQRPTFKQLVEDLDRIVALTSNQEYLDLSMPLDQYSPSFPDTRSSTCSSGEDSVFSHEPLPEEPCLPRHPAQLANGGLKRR
Description: as §1

LCK = target: T7, LCK (Homo sapiens, UniProt P06239); experiment: Kinase Selectivity Assay; details: read-out: Percent Inhibition at 1 μM; further: ATP at apparent Km or 100 µM
T7 construct: full-length enzymes or catalytically active fragments; purchased Invitrogen
T7 sequence (P06239 whole entry, the tested form may be a part): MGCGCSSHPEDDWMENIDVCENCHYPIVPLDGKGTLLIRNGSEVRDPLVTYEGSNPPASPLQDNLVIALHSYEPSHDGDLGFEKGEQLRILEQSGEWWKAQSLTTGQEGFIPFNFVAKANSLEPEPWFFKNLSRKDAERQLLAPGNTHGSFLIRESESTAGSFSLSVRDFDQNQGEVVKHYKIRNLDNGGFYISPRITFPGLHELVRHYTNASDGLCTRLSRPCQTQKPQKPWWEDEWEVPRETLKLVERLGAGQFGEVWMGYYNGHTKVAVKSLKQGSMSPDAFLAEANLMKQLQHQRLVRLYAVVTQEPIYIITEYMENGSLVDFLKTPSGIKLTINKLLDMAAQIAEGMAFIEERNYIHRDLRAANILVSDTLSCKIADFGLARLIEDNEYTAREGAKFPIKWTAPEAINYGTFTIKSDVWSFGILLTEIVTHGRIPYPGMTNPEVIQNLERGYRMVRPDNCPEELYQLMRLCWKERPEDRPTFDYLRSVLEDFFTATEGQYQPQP
Description: as §1

PTK2 (FAK) = target: T8, PTK2 (FAK) (Homo sapiens, UniProt Q05397); experiment: Kinase Selectivity Assay; details: read-out: Percent Inhibition at 1 μM; further: ATP at apparent Km or 100 µM
T8 construct: full-length enzymes or catalytically active fragments; purchased Invitrogen
T8 sequence (Q05397 whole entry, the tested form may be a part): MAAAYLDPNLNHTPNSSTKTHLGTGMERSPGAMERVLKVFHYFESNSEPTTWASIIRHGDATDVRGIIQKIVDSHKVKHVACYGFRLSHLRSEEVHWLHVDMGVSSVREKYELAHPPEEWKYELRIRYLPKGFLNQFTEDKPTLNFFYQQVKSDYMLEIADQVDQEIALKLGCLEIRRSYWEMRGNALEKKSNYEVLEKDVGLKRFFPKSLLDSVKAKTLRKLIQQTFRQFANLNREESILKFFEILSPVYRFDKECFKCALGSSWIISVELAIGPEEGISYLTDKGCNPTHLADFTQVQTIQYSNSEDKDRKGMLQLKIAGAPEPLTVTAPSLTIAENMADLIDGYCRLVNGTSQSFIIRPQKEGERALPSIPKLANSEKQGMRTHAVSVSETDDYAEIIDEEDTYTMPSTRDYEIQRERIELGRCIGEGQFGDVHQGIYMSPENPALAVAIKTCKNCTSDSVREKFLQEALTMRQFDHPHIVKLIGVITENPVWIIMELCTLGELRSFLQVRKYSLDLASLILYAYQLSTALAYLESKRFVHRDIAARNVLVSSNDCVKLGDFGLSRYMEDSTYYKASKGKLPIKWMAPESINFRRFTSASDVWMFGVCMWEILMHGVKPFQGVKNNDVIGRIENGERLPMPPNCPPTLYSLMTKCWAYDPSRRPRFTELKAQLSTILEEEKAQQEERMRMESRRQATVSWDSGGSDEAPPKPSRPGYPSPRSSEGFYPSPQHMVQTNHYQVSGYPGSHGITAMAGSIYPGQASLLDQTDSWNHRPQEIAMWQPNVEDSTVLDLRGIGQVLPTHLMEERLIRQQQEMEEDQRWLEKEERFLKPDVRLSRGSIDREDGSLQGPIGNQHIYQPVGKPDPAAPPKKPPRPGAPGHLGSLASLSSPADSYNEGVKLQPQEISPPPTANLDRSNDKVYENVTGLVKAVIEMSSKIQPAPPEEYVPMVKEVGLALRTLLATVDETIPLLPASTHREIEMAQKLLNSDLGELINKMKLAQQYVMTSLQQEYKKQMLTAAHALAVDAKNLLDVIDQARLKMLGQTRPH
Description: as §1

SYK = target: T9, SYK (Homo sapiens, UniProt P43405); experiment: Kinase Selectivity Assay; details: read-out: Percent Inhibition at 1 μM
T9 construct: purchased Invitrogen, Carlsbad, Calif
Description: as §1

[1] = target: T10, recombinant human KDR, residues 790-end (Homo sapiens, UniProt P35968); experiment: KDR Kinase Inhibition Assay; details: read-out: inhibition of KDR at a concentration of 1 μM
T10 construct: recombinant human KDR, residues 790-end; His6 (N); purchased Upstate USA Inc, Charlottesville, Va
T10 sequence (P35968 790-1356 limits assumed): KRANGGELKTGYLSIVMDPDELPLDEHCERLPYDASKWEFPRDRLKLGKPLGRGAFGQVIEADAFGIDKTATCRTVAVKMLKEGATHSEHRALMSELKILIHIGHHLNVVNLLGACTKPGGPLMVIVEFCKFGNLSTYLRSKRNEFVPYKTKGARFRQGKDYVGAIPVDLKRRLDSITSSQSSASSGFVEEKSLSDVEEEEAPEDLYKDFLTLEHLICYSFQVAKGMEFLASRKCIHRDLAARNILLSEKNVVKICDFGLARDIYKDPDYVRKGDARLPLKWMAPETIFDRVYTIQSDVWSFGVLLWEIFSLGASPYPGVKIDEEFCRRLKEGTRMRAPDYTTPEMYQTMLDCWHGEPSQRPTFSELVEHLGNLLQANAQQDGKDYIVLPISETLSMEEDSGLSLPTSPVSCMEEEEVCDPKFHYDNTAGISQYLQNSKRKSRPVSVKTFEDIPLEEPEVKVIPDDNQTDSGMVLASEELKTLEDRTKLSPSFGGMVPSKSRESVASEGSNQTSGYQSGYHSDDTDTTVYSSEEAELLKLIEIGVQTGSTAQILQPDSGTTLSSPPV
Description: Compounds were assayed for KDR kinase inhibitory activity using N-terminal His6-tagged recombinant human KDR, residues 790-end (Upstate USA Inc, 706 Forest Street, Charlottesville, Va.). Serial dilutions of compound were assayed in a final reaction volume of 25 μL by incubating a solution of the above KDR kinase (5-10 mU), 8 mM MOPS (3-(N-morpholino) propanesulfonic acid) pH 7.0, 0.2 mM EDTA (ethylenediamine tetracetic acid), 0.33 mg/mL myelin basic protein (Upstate USA Inc, 706 Forest Street, Charlottesville, Virginia), and 10 mM magnesium acetate and [γ-^33P-ATP] (specific activity of about 500 cpm/pmol, concentration as required). The reaction was initiated by the addition of the magnesium acetate and [γ-^33P-ATP] mixture. After incubation for 40 minutes at room temperature, the reaction was stopped by the addition of 5 μL of a 3% phosphoric acid solution. A 10 μL aliquote of the reaction was then spotted onto a P30 filtermat (PerkinElmer, Wellesley, Mass.) and washed three times for five minutes in 75 mM phosphoric acid and once in methanol prior to drying and scintillation counting. Inhibition of KDR activity was determined by comparison to assays that contained no inhibitor.

Row | SMILES | inhibition at 1 µM (ABL1) | inhibition at 1 µM (ABL1 E255K) | inhibition at 1 µM (ABL1 G250E) | inhibition at 1 µM (ABL1 T315I) | inhibition at 1 µM (ABL1 Y253F) | inhibition at 1 µM (FGFR1) | inhibition at 1 µM (LCK) | inhibition at 1 µM (PTK2 (FAK)) | inhibition at 1 µM (SYK) | inhibition at 1 µM [1]
1 | Cc1cc(Nc2nc(/C=C/c3ccccc3)nc(N3CCN(C)CC3)c2N)[nH]n1 [Example 10, 6-(4-methylpiperazin-1-yl)-N-(3-methyl-1H-pyrazol-5-yl)-2-[(E)-2-phenylvinyl]pyrimidin-4,5-diamine] | 54% | 53% | 60% | 79% | 57% | 46% | 81% | 81% | 88% | 
2 | Cc1cc(Nc2cc(N3CCN(C)CC3)nc(/C=C/c3ccccc3)n2)n[nH]1 [Example 31, 6-(4-methylpiperazin-1-yl)-N-(3-methyl-1H-pyrazol-5-yl)-2-[(E)-2-phenylvinyl]pyrimidin-4-amine] |  |  |  |  |  |  |  |  |  | ~94%
